Like-named read-outs stand apart in the source and are kept apart here.
Legend:
Experiment in all cases: NCI 60 cell panel growth inhibition
Format in all cases: cell-based, human
786-0 = conditions: RENAL, read-out: anti-tumour activity GI50
Source text: (§1) Examples 6 and 7 make use of the NCl 60 cell panel. This is an in vitro cell line screening project providing direct support to the National Cancer Institute's USA Developmental Therapeutic Programme for anti cancer discovery. The methodolgy for the cell line's operation is described by Boyd et al in Drug Development Research 1995, 34, 91-109.

ACHN = conditions: RENAL, read-out: anti-tumour activity GI50
Source text: as §1

BT-549 = conditions: BREAST, read-out: anti-tumour activity GI50
Source text: as §1

CAKI-1 = conditions: RENAL, read-out: anti-tumour activity GI50
Source text: as §1

CCRF-CEM = conditions: Leukemia, read-out: anti-tumour activity GI50
Source text: as §1

COLO 205 = conditions: COLON, read-out: anti-tumour activity GI50
Source text: as §1

DU-145 = conditions: PROST, read-out: anti-tumour activity GI50
Source text: as §1

EKVX = conditions: NSCLC, read-out: anti-tumour activity GI50
Source text: as §1

HCT-116 = conditions: COLON, read-out: anti-tumour activity GI50
Source text: as §1

HL-60(TB) = conditions: Leukemia, read-out: anti-tumour activity GI50
Source text: as §1

HOP-62 = conditions: NSCLC, read-out: anti-tumour activity GI50
Source text: as §1

HOP-92 = conditions: NSCLC, read-out: anti-tumour activity GI50
Source text: as §1

HS 578T = conditions: BREAST, read-out: anti-tumour activity GI50
Source text: as §1

HT29 = conditions: read-out: anti-tumour activity GI50
Source text: as §1

IGROV1 = conditions: read-out: anti-tumour activity GI50
Source text: as §1

KM12 = conditions: COLON, read-out: anti-tumour activity GI50
Source text: as §1

LOX IMVI = conditions: MELAN, read-out: anti-tumour activity GI50
Source text: as §1

M14 = conditions: MELAN, read-out: anti-tumour activity GI50
Source text: as §1

MALME-3M = conditions: MELAN, read-out: anti-tumour activity GI50
Source text: as §1

MCF7 = conditions: BREAST, read-out: anti-tumour activity GI50
Source text: as §1

MDA-MB-231/ATCC = conditions: BREAST, read-out: anti-tumour activity GI50
Source text: as §1

MOLT-4 = conditions: Leukemia, read-out: anti-tumour activity GI50
Source text: as §1

NCI-H322M = conditions: NSCLC, read-out: anti-tumour activity GI50
Source text: as §1

NCI-H460 = conditions: NSCLC, read-out: anti-tumour activity GI50
Source text: as §1

NCI-H522 = conditions: NSCLC, read-out: anti-tumour activity GI50
Source text: as §1

NCI/ADRRES = conditions: BREAST, read-out: anti-tumour activity GI50
Source text: as §1

OVCAR-3 = conditions: OVAR, read-out: anti-tumour activity GI50
Source text: as §1

OVCAR-4 = conditions: OVAR, read-out: anti-tumour activity GI50
Source text: as §1

OVCAR-8 = conditions: OVAR, read-out: anti-tumour activity GI50
Source text: as §1

PC-3 = conditions: PROST, read-out: anti-tumour activity GI50
Source text: as §1

RPMI-8226 = conditions: Leukemia, read-out: anti-tumour activity GI50
Source text: as §1

RXF 393 = conditions: RENAL, read-out: anti-tumour activity GI50
Source text: as §1

SF-268 = conditions: CNS, read-out: anti-tumour activity GI50
Source text: as §1

SF-295 = conditions: CNS, read-out: anti-tumour activity GI50
Source text: as §1

SF-539 = conditions: CNS, read-out: anti-tumour activity GI50
Source text: as §1

SK-MEL-28 = conditions: MELAN, read-out: anti-tumour activity GI50
Source text: as §1

SK-MEL-2 = conditions: MELAN, read-out: anti-tumour activity GI50
Source text: as §1

SK-MEL-5 = conditions: MELAN, read-out: anti-tumour activity GI50
Source text: as §1

SKOV-3 = conditions: read-out: anti-tumour activity GI50
Source text: as §1

SNB-19 = conditions: CNS, read-out: anti-tumour activity GI50
Source text: as §1

SR = conditions: Leukemia, read-out: anti-tumour activity GI50
Source text: as §1

SW-620 = conditions: COLON, read-out: anti-tumour activity GI50
Source text: as §1

T-47D = conditions: BREAST, read-out: anti-tumour activity GI50
Source text: as §1

TK10 = conditions: read-out: anti-tumour activity GI50
Source text: as §1

U251 = conditions: read-out: anti-tumour activity GI50
Source text: as §1

UCC-62 = conditions: MELAN, read-out: anti-tumour activity GI50
Source text: as §1

Work on COc1cc(C(=O)OC(C(=O)NCCN2CCCC(Cl)C2)C2(C)CO2)c2cccc(C)c2c1 (centres unmarked) [Compound 20] yielded a GI50 (786-0) of 100 µM, a GI50 (ACHN) of 1170 nM and a GI50 (BT-549) of 12.5 µM. It also gave a GI50 (CAKI-1) of 10.3 µM, a GI50 (CCRF-CEM) of 3.26 µM and a GI50 (COLO 205) of 13.8 µM. For the same molecule, the GI50 (DU-145) was 4.49 µM, the GI50 (EKVX) was 17.5 µM and the GI50 (HCT-116) was 100 µM. It also gave a GI50 (HL-60(TB)) of 6.98 µM, a GI50 (HOP-62) of 100 µM and a GI50 (HOP-92) of 13.8 µM. The GI50 (HS 578T) was 17.5 µM, the GI50 (HT29; COLON) was 11 µM and the GI50 (IGROV1; OVAR) was 12.1 µM. For the same molecule, the GI50 (KM12) was 14.5 µM, the GI50 (LOX IMVI) was 3.62 µM and the GI50 (M14) was 100 µM. It also gave a GI50 (MALME-3M) of 14.8 µM, a GI50 (MCF7) of 14.7 µM and a GI50 (MDA-MB-231/ATCC) of 14 µM. The GI50 (MOLT-4) was 3 µM, the GI50 (NCI-H322M) was 17.9 µM and the GI50 (NCI-H460) was 13 µM. It also gave a GI50 (NCI-H522) of 7.77 µM, a GI50 (NCI/ADRRES) of 11.1 µM and a GI50 (OVCAR-3) of 18.6 µM. The GI50 (OVCAR-4) was 21.5 µM, the GI50 (OVCAR-8) was 44.5 µM and the GI50 (PC-3) was 11.2 µM. For the same molecule, the GI50 (RPMI-8226) was 4.18 µM, the GI50 (RXF 393) was 17.5 µM and the GI50 (SF-268) was 16.6 µM. For the same molecule, the GI50 (SF-295) was 13.1 µM, the GI50 (SF-539) was 6.27 µM and the GI50 (SK-MEL-28) was 11.6 µM. It also gave a GI50 (SK-MEL-2) of 18.6 µM, a GI50 (SK-MEL-5) of 1560 nM and a GI50 (SKOV-3; OVAR) of 19.7 µM. It also gave a GI50 (SNB-19) of 14.3 µM, a GI50 (SR) of 2020 nM and a GI50 (SW-620) of 5.26 µM. It also gave a GI50 (T-47D) of 23 µM, a GI50 (TK10; RENAL) of 23.4 µM and a GI50 (U251; CNS) of 7.82 µM. For the same molecule, the GI50 (UCC-62) was 14.7 µM.

C=C(C)[C@H](OC(=O)c1cc(OC)cc2c(C)cccc12)C(=O)NCCN1CCCC(Cl)C1 (some centres unmarked) [Compound 21] was tested, and the GI50 (786-0; Homo sapiens) was 4.48 µM, the GI50 (ACHN; Homo sapiens) was 1780 nM and the GI50 (BT-549; Homo sapiens) was 4.55 µM. The GI50 (CAKI-1; Homo sapiens) was 5.66 µM, the GI50 (CCRF-CEM; Homo sapiens) was 3.24 µM and the GI50 (COLO 205; Homo sapiens) was 6.08 µM. The GI50 (DU-145; Homo sapiens) was 5.15 µM, the GI50 (EKVX; Homo sapiens) was 11.4 µM and the GI50 (HCT-116; Homo sapiens) was 12.8 µM. The GI50 (HL-60(TB); Homo sapiens) was 12.1 µM, the GI50 (HOP-62; Homo sapiens) was 3.45 µM and the GI50 (HOP-92; Homo sapiens) was 4.12 µM. It also gave a GI50 (HS 578T; Homo sapiens) of 3.69 µM, a GI50 (HT29; Homo sapiens, HT-29, COLON) of 7.26 µM and a GI50 (IGROV1; Homo sapiens, IGROV-1, OVAR) of 4.21 µM. The GI50 (KM12; Homo sapiens) was 9.3 µM, the GI50 (LOX IMVI; Homo sapiens) was 2.84 µM and the GI50 (M14; Homo sapiens) was 1.75 µM. For the same molecule, the GI50 (MALME-3M; Homo sapiens) was 7.51 µM, the GI50 (MCF7; Homo sapiens) was 4.62 µM and the GI50 (MDA-MB-231/ATCC; Homo sapiens) was 11 µM. For the same molecule, the GI50 (MOLT-4; Homo sapiens) was 3.3 µM, the GI50 (NCI-H322M; Homo sapiens) was 8.07 µM and the GI50 (NCI-H460; Homo sapiens) was 6.26 µM. It also gave a GI50 (NCI-H522; Homo sapiens) of 5.1 µM, a GI50 (NCI/ADRRES; Homo sapiens, NCI/ADR-RES) of 12.8 µM and a GI50 (OVCAR-3; Homo sapiens) of 10.2 µM. It also gave a GI50 (OVCAR-4; Homo sapiens) of 20.9 µM, a GI50 (OVCAR-8; Homo sapiens) of 32.9 µM and a GI50 (PC-3; Homo sapiens) of 7.96 µM. For the same molecule, the GI50 (RPMI-8226; Homo sapiens) was 3.43 µM, the GI50 (RXF 393; Homo sapiens) was 19.1 µM and the GI50 (SF-268; Homo sapiens) was 11.9 µM. The GI50 (SF-295; Homo sapiens) was 4.35 µM, the GI50 (SF-539; Homo sapiens) was 0.45 µM and the GI50 (SK-MEL-28; Homo sapiens) was 8.48 µM. For the same molecule, the GI50 (SK-MEL-2; Homo sapiens) was 7.81 µM, the GI50 (SK-MEL-5; Homo sapiens) was 1990 nM and the GI50 (SKOV-3; Homo sapiens, SK-OV-3, OVAR) was 17.2 µM. For the same molecule, the GI50 (SNB-19; Homo sapiens) was 5.63 µM, the GI50 (SR; Homo sapiens) was 2340 nM and the GI50 (SW-620; Homo sapiens) was 2.76 µM. For the same molecule, the GI50 (T-47D; Homo sapiens, T47D) was 10.8 µM, the GI50 (TK10; Homo sapiens, TK-10, RENAL) was 12.1 µM and the GI50 (U251; Homo sapiens, U-251, CNS) was 2.63 µM. It also gave a GI50 (UCC-62; Homo sapiens, 60 cell) of 4.41 µM.

— US20090233966A1, “Analogues of the Azinomycins as Anti-Tumour Agents and as Prodrugs” (School of Pharmacy, University of London, priority 2005, published 2009)
